Test results reported in the NIST ThermoML archive (doi:10.1016/j.jct.2018.02.022).

Assay: xn = mol fraction of the nth substance listed
Details: 92.3 kPa, Liquid; for viscosity: Concentric cylinders viscometry; for speed of sound: Frequency=3 MHz, Single path-length method; for mass density: Vibrating tube method

OCCOCCO [diethylene glycol] + O
Details	mass density, 293.15 K [kg/m3]	mass density, 298.15 K [kg/m3]	speed of sound, 293.15 K [m/s]	speed of sound, 298.15 K [m/s]	viscosity, 293.15 K [mPa·s]	viscosity, 298.15 K [mPa·s]
x1 = 0.0097	1006.17	1004.88	1511.2	1523	–	–
x1 = 0.0201	1013.77	1012.33	1539.6	1549.1	–	–
x1 = 0.0297	1020.4	1018.8	1563.6	1571.1	–	–
x1 = 0.0397	1026.98	1025.23	1586.2	1591.7	–	–
x1 = 0.049	1032.59	1030.67	–	–	2.119	1.717
x1 = 0.0502	1033.24	1031.33	1607.7	1611.3	–	–
x1 = 0.0591	1038.24	1036.19	1624	1626.1	–	–
x1 = 0.0703	1044.16	1041.95	1642.5	1643	–	–
x1 = 0.0796	1048.67	1046.34	1655.5	1654.7	–	–
x1 = 0.0897	1053.15	1050.7	1667.9	1665.9	–	–
x1 = 0.0992	1057.14	1054.62	–	–	3.602	2.877
x1 = 0.1004	1057.71	1055.14	1679.7	1676.5	–	–
x1 = 0.149	1074.04	1071.09	–	–	5.458	4.314
x1 = 0.1507	1074.47	1071.48	1713	1705.9	–	–
x1 = 0.1996	1085.68	1082.45	1723.9	1714.7	–	–
x1 = 0.1998	1085.89	1082.66	–	–	7.66	6.022
x1 = 0.2467	1093.59	1090.21	1723	1712.6	–	–
x1 = 0.249	1093.81	1090.4	–	–	10.04	7.847
x1 = 0.2943	1098.86	1095.38	1716.6	1705.5	–	–
x1 = 0.2987	1099.44	1095.93	–	–	12.55	9.772
x1 = 0.3501	1103.6	1100.05	–	–	15.18	11.79
x1 = 0.3511	1103.73	1100.19	1705.1	1693.5	–	–
x1 = 0.3995	1106.65	1103.05	1694	1682.2	–	–
x1 = 0.4007	1106.63	1103.05	–	–	17.72	13.74
x1 = 0.4504	1108.9	1105.32	–	–	20.13	15.59
x1 = 0.4527	1109.08	1105.5	1681.7	1669.8	–	–
x1 = 0.4973	1110.6	1107.02	–	–	22.3	17.24
x1 = 0.5008	1110.76	1107.17	1670.7	1658.7	–	–
x1 = 0.5449	1111.95	1108.36	1661.5	1649.4	–	–
x1 = 0.553	1112.18	1108.61	–	–	24.68	19.07
x1 = 0.5834	1112.81	1109.23	1653.4	1641.4	–	–
x1 = 0.5938	1113.09	1109.52	–	–	26.23	20.23
x1 = 0.6482	1113.95	1110.37	1640.7	1628.7	–	–
x1 = 0.6514	1114.07	1110.49	–	–	28.3	21.86
x1 = 0.6864	1114.52	1110.94	–	–	29.45	22.7
x1 = 0.6982	1114.6	1111.02	1632.2	1620.2	–	–
x1 = 0.7444	1115.11	1111.54	1624.4	1612.5	–	–
x1 = 0.7556	1115.19	1111.61	–	–	31.37	24.17
x1 = 0.7962	1115.57	1112.01	1616.7	1604.8	–	–
x1 = 0.7999	1115.52	1111.95	–	–	32.41	24.94
x1 = 0.8401	1115.89	1112.33	1610.4	1598.5	–	–
x1 = 0.8525	1115.89	1112.33	–	–	33.47	25.8
x1 = 0.8947	1116.23	1112.67	1603.3	1591.5	–	–
x1 = 0.9002	1116.23	1112.68	–	–	34.4	26.49
x1 = 0.9092	1116.32	1112.76	1601.5	1589.6	–	–
x1 = 0.919	1116.37	1112.81	1600.2	1588.4	–	–
x1 = 0.9303	1116.39	1112.85	1599.1	1587.2	–	–
x1 = 0.9393	1116.4	1112.85	1598	1586.2	–	–
x1 = 0.9473	1116.5	1112.94	1597.2	1585.3	–	–
x1 = 0.9554	1116.57	1113.02	–	–	35.26	27.15
x1 = 0.9566	1116.55	1112.99	1596	1584.1	–	–
x1 = 0.9694	1116.6	1113.04	1594.6	1582.7	–	–
x1 = 0.9801	1116.65	1113.09	1593.4	1581.5	–	–
x1 = 0.9915	1116.69	1113.13	1592.1	1580.3	–	–
x1 = 1	1116.73	1113.17	1591	1579.1	35.89	27.67
